Experimental data published in US20140357560A1, “PTH-CONTAINING THERAPEUTIC/PROPHYLACTIC AGENT FOR OSTEOPOROSIS, CHARACTERIZED IN THAT PTH IS ADMINISTERED ONCE A WEEK IN A UNIT DOSE OF 100 TO 200 UNITS” (ASAHI KASEI PHARMA CORPORATION, priority 2009, published 2014).
Where a name gives a salt, the structure may show the parent alone. One block for each compound: values may come before it.

Experiments:
[1] = tested on: nausea and vomiting associated with administration of the test drug; assay: Working Example 2: drugs to treat nausea and vomiting associated with the test drug; details: for efficacy against nausea and vomiting associated with the test drug (summary): summary of Table 18
Text: The administration period and efficacy of various drugs to treat nausea and vomiting associated with administration of the test drug were studied.

[2] = tested on: osteoporosis patients having normal renal function, mild or moderate renal dysfunction; details: in vivo
[3] = Working Example 1: serum calcium concentration / hypercalcemia; type: in vivo, human
Procedure: Both the 5 and 100 unit groups were administered two tablets of a calcium agent (containing 500 mg of precipitated calcium carbonate [200 mg as calcium] per tablet) once a day.

[4] = in vivo
Procedure: The ratio of the urinary calcium value/urinary creatine value was compared before beginning administration and in the weeks of observation. The urinary calcium was measured at the start, after 12 weeks, after 24 weeks, after 48 weeks, and after 72 weeks.

[5] = in vivo; remark: listed apart in the source
Procedure: The serum calcium was measured at the start, after 12 weeks, after 24 weeks, after 48 weeks, and after 72 weeks. Serum calcium standard value: 8.4 to 10.4 mg/dL. The standard concomitant drug (610 mg of calcium, 400 IU of vitamin D3, and 30 mg of magnesium) was taken once a day after dinner from the time of consent to the end of the trial.

[6] = 20 μg/day; blood samples 4 to 6 hours after administration; Non-patent Reference 1; cited from earlier work
[7] = conventional daily administration; moderate renal dysfunction; Non-patent Reference 32; cited from earlier work

Compound: CCOc1cc(N)c(Cl)cc1C(=O)NCC1CN(Cc2ccc(F)cc2)CCO1 (stereo not shown) [Gasmotin, mosapride citrate]
efficacy against nausea and vomiting associated with the test drug (summary) [1]: effective

Compound: NC(N)=Nc1nc(CSCCC(N)=NS(N)(=O)=O)cs1 [Gaster D, famotidine]
Effective or ineffective ([1]; Event: Nausea, before or after test drug: Unknown): Effective | efficacy against nausea and vomiting associated with the test drug (summary) [1]: effective

Compound: O=c1[nH]c2ccccc2n1CCCN1CCC(n2c(=O)[nH]c3cc(Cl)ccc32)CC1 [Nauzelin, domperidone]
Effective or ineffective ([1]; Event: Nausea, given Before test drug, taken after breakfast, lunch, and dinner): Effective | Effective or ineffective ([1]; Event: Vomiting, given Before test drug, taken after breakfast, lunch, and dinner): Effective | efficacy against nausea and vomiting associated with the test drug (summary) [1]: effective

Compound: CN1CCN(CCCN2c3ccccc3Sc3ccc(Cl)cc32)CC1.O=C(O)/C=C\C(=O)O.O=C(O)/C=C\C(=O)O [Novamine]
Effective or ineffective ([1]; Event: Nausea, given Before test drug): Ineffective

Compound: CCN(CC)CCNC(=O)c1cc(Cl)c(N)cc1OC [Primperan, metoclopramide]
Effective or ineffective ([1]; Event: Nausea, given Before test drug, listed as Primperan tablet): Ineffective | efficacy against nausea and vomiting associated with the test drug (summary) [1]: effective

Compound: Cc1c(OCC(F)(F)F)ccnc1C[S+]([O-])c1nc2ccccc2[nH]1 (stereo not shown) [Takepron OD, lansoprazole]
efficacy against nausea and vomiting associated with the test drug (summary) [1]: effective

hypercalcemia ([3]; once a week, either dose (5 or 100 units), during the administration period): did not cause hypercalcemia | median percentage change in the urinary calcium value [4]: −14.7% | corrected serum calcium value after administration, maximum [5]: 11.6 mg/dL | corrected serum calcium value after administration, minimum [5]: 8.5 mg/dL | corrected serum calcium value, range of the average [5]: 9.3 to 9.6 mg/dL
Compound: CC[C@H](C)[C@H](NC(=O)[C@H](CCC(=O)O)NC(=O)[C@H](CO)NC(=O)[C@@H](NC(=O)[C@@H](N)CO)C(C)C)C(=O)N[C@@H](CCC(N)=O)C(=O)N[C@@H](CC(C)C)C(=O)N[C@@H](CCSC)C(=O)N[C@@H](Cc1cnc[nH]1)C(=O)N[C@@H](CC(N)=O)C(=O)N[C@@H](CC(C)C)C(=O)NCC(=O)N[C@@H](CCCCN)C(=O)N[C@@H](Cc1cnc[nH]1)C(=O)N[C@@H](CC(C)C)C(=O)N[C@@H](CC(N)=O)C(=O)N[C@@H](CO)C(=O)N[C@@H](CCSC)C(=O)N[C@@H](CCC(=O)O)C(=O)N[C@@H](CCCN=C(N)N)C(=O)N[C@H](C(=O)N[C@@H](CCC(=O)O)C(=O)N[C@@H](Cc1c[nH]c2ccccc12)C(=O)N[C@@H](CC(C)C)C(=O)N[C@@H](CCCN=C(N)N)C(=O)N[C@@H](CCCCN)C(=O)N[C@@H](CCCCN)C(=O)N[C@@H](CC(C)C)C(=O)N[C@@H](CCC(N)=O)C(=O)N[C@@H](CC(=O)O)C(=O)N[C@H](C(=O)N[C@@H](Cc1cnc[nH]1)C(=O)N[C@@H](CC(N)=O)C(=O)N[C@@H](Cc1ccccc1)C(=O)O)C(C)C)C(C)C [teriparatide acetate]
incidence of side effects relative to the control [2]: about twice that of the control | changes in the serum calcium concentration ([3]; 5 or 100 units once a week, high-risk and low-risk patients): no tendency for the serum calcium to rise was seen | corrected serum calcium, test drug groups versus control group [5]: No significant differences could be found | manifestation of hypercalcemia or hypercalciuria [5]: No manifestation of hypercalcemia or hypercalciuria was found

Compound: PTH: parathyroid hormone preparation given daily (20 μg/day) in cited trials, conventional daily administration
patients with hypercalcemia [6]: 11% | patients with persistent hypercalcemia [6]: 3% | osteoporosis patients with serum calcium exceeding 11.0 mg/mL after administration [7]: 11.76%
